# Assay results taken from PubChem BioAssay (NCI).
#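 Exposure lasted 48 hours, with cells grown in 96-well plates and compounds tested at five concentrations. Definition used: TGI = concentration required for complete inhibition of growth.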
# Legend:
# Test in all cases: NCI anticancer screen, dose series, 48 h
# A549 NSCLC = system: A549 NSCLC
# LOX IMVI melanoma = system: LOX IMVI melanoma
# DMS 114 small cell lung = system: DMS 114 small cell lung
# HCC-2998 colon = system: HCC-2998 colon
# HOP-92 NSCLC = system: HOP-92 NSCLC
# EKVX NSCLC = system: EKVX NSCLC
# U251 CNS = system: U251 CNS
# OVCAR-3 ovarian = system: OVCAR-3 ovarian
# UO-31 renal = system: UO-31 renal
# IGROV1 ovarian = system: IGROV1 ovarian
# ACHN renal = system: ACHN renal
# A498 renal = system: A498 renal
# SN12C renal = system: SN12C renal
# SNB-75 CNS = system: SNB-75 CNS
# MOLT-4 leukemia = system: MOLT-4 leukemia
# SK-MEL-2 melanoma = system: SK-MEL-2 melanoma
# SF-539 CNS = system: SF-539 CNS
# DLD-1 colon = system: DLD-1 colon
# NCI-H460 lung = system: NCI-H460 lung
# OVCAR-4 ovarian = system: OVCAR-4 ovarian
# M14 melanoma = system: M14 melanoma
# UACC-62 melanoma = system: UACC-62 melanoma
# SF-295 CNS = system: SF-295 CNS
# 786-0 renal = system: 786-0 renal
# NCI-H522 lung = system: NCI-H522 lung
# HOP-18 NSCLC = system: HOP-18 NSCLC
# HCT-15 colon = system: HCT-15 colon
# OVCAR-8 ovarian = system: OVCAR-8 ovarian
# SK-OV-3 ovarian = system: SK-OV-3 ovarian
# MALME-3M melanoma = system: MALME-3M melanoma
# HOP-62 NSCLC = system: HOP-62 NSCLC
# M19-MEL melanoma = system: M19-MEL melanoma
# OVCAR-5 ovarian = system: OVCAR-5 ovarian
# COLO 205 colon = system: COLO 205 colon
# HCT-116 colon = system: HCT-116 colon
# SK-MEL-28 melanoma = system: SK-MEL-28 melanoma
# LXFL 529 NSCLC = system: LXFL 529 NSCLC
# CCRF-CEM leukemia = system: CCRF-CEM leukemia
# NCI-H23 lung = system: NCI-H23 lung
# SNB-19 CNS = system: SNB-19 CNS
# DMS 273 small cell lung = system: DMS 273 small cell lung
# SNB-78 CNS = system: SNB-78 CNS
# SW-620 colon = system: SW-620 colon
# SK-MEL-5 melanoma = system: SK-MEL-5 melanoma
# K-562 leukemia = system: K-562 leukemia
# TK-10 renal = system: TK-10 renal
# KM12 colon = system: KM12 colon
# SF-268 CNS = system: SF-268 CNS
# HT29 colon = system: HT29 colon
# HL-60(TB) leukemia = system: HL-60(TB) leukemia
# KM20L2 colon = system: KM20L2 colon
# CAKI-1 renal = system: CAKI-1 renal
# UACC-257 melanoma = system: UACC-257 melanoma
smiles,measurement,setting,value
CCC1(N=[N+]=[N-])C(=O)Nc2cc(C)ccc2C1=O (stereo not drawn),TGI,A549 NSCLC,> 100 µM
same,TGI,LOX IMVI melanoma,> 100 µM
same,TGI,DMS 114 small cell lung,> 100 µM
same,TGI,HCC-2998 colon,> 100 µM
same,TGI,HOP-92 NSCLC,> 100 µM
same,TGI,EKVX NSCLC,> 100 µM
same,TGI,U251 CNS,> 100 µM
same,TGI,OVCAR-3 ovarian,> 100 µM
same,TGI,UO-31 renal,> 100 µM
same,TGI,IGROV1 ovarian,> 100 µM
same,TGI,ACHN renal,51.2 µM
same,TGI,A498 renal,> 100 µM
same,TGI,SN12C renal,> 100 µM
same,TGI,SNB-75 CNS,> 100 µM
same,TGI,MOLT-4 leukemia,> 100 µM
same,TGI,SK-MEL-2 melanoma,> 100 µM
same,TGI,SF-539 CNS,> 100 µM
same,TGI,DLD-1 colon,> 100 µM
same,TGI,NCI-H460 lung,> 100 µM
same,TGI,OVCAR-4 ovarian,> 100 µM
same,TGI,M14 melanoma,> 100 µM
same,TGI,UACC-62 melanoma,> 100 µM
same,TGI,SF-295 CNS,> 100 µM
same,TGI,786-0 renal,> 100 µM
same,TGI,NCI-H522 lung,15.6 µM
same,TGI,HOP-18 NSCLC,> 100 µM
same,TGI,HCT-15 colon,> 100 µM
same,TGI,OVCAR-8 ovarian,> 100 µM
same,TGI,SK-OV-3 ovarian,> 100 µM
same,TGI,MALME-3M melanoma,> 100 µM
same,TGI,HOP-62 NSCLC,> 100 µM
same,TGI,M19-MEL melanoma,> 100 µM
same,TGI,OVCAR-5 ovarian,> 100 µM
same,TGI,COLO 205 colon,> 100 µM
same,TGI,HCT-116 colon,> 100 µM
same,TGI,SK-MEL-28 melanoma,> 100 µM
same,TGI,LXFL 529 NSCLC,> 100 µM
same,TGI,CCRF-CEM leukemia,> 100 µM
same,TGI,NCI-H23 lung,> 100 µM
same,TGI,SNB-19 CNS,> 100 µM
same,TGI,DMS 273 small cell lung,> 100 µM
same,TGI,SNB-78 CNS,> 100 µM
same,TGI,SW-620 colon,> 100 µM
same,TGI,SK-MEL-5 melanoma,> 100 µM
same,TGI,K-562 leukemia,> 100 µM
same,TGI,TK-10 renal,> 100 µM
same,TGI,KM12 colon,> 100 µM
same,TGI,SF-268 CNS,> 100 µM
same,TGI,HT29 colon,> 100 µM
same,TGI,HL-60(TB) leukemia,53.6 µM
same,TGI,KM20L2 colon,> 100 µM
same,TGI,CAKI-1 renal,> 100 µM
same,TGI,UACC-257 melanoma,> 100 µM
